From ChEMBL document CHEMBL4396938, “New amide linked dimeric 1,2,3-triazoles bearing aryloxy scaffolds as a potent antiproliferative agents and EGFR tyrosine kinase phosphorylation inhibitors” (Bioorg Med Chem Lett, 2019) come the findings set out here.

The test system of data set [1] is MCF7. In words: Antiproliferative activity against human MCF7 cells assessed as growth inhibition at 1 uM incubated for 24 hrs by MTT assay (reference value: 0%). The format is functional. Conditions: MCF7, 24 h, read-out: GI. (Tetrazolium assays rely on reduction of a dye to a coloured formazan, in cell work by metabolically active cells.)
Data set [2] relates to MCF7. The experiment in a line: Antiproliferative activity against human MCF7 cells assessed as growth inhibition at 0.1 uM incubated for 24 hrs by MTT assay (reference value: 0%). The data set is classed as functional. To be noted: MCF7, 24 h, read-out: GI.
In data set [3] the test system is A549. In words: Antiproliferative activity against human A549 cells assessed as growth inhibition at 0.1 uM incubated for 24 hrs by MTT assay (reference value: 0%). The format is functional. To be noted: A549, 24 h, read-out: GI.
The test system of data set [4] is MCF7. In words: Antiproliferative activity against human MCF7 cells assessed as growth inhibition at 10 uM incubated for 24 hrs by MTT assay (reference value: 0%). The format is functional. To be noted: MCF7, 24 h, read-out: GI.
Data set [5] relates to A549. The experiment in a line: Antiproliferative activity against human A549 cells assessed as growth inhibition at 10 uM incubated for 24 hrs by MTT assay (reference value: 0%). The data set is classed as functional. To be noted: A549, 24 h, read-out: GI.
Data set [6] has as its system A549. In words: Antiproliferative activity against human A549 cells assessed as growth inhibition at 1 uM incubated for 24 hrs by MTT assay (reference value: 0%). The data set is classed as functional. To be noted: A549, 24 h, read-out: GI.
Data set [7] has as its system MCF7. In words: Antiproliferative activity against human MCF7 cells assessed as reduction in cell growth incubated for 24 hrs by MTT assay. The format is functional, cell-based. To be noted: MCF7, 24 h.
Data set [8] concerns the target Epidermal growth factor receptor (Homo sapiens) (UniProt P00533). Conditions: MCF7, at 10 µM.
Description: Inhibition of EGFR in human MCF7 cells assessed as reduction in EGFR phosphorylation at 10 uM incubated for 48 hrs by Western blot analysis
Data set [9] deals with A549. The experiment in a line: Antiproliferative activity against human A549 cells assessed as reduction in cell growth incubated for 24 hrs by MTT assay. The data set is classed as functional, cell-based. Conditions: A549, 24 h.
The test system of data set [10] is MCF-10A. The experiment in a line: Cytotoxicity against human MCF10A cells assessed as reduction in cell viability incubated for 24 hrs by MTT assay. The format is ADME, cell-based.
Data set [11] is described as follows: Selectivity index, ratio of cytotoxic IC50 for human MCF10A cells to antiproliferative IC50 for human MCF7 cells. The format is toxicity. To be noted: MCF10A cells and MCF7 cells, read-out: Ratio IC50.

Each structure is given as a SMILES string.

For orientation: IC50 means the concentration needed to halve the response being measured. In general, inhibition refers to the relative decrease from the control value, in per cent. High values mean a response far below the control, low ones a response near the control.

Epidermal growth factor receptor (Homo sapiens), sequence (P00533 whole entry): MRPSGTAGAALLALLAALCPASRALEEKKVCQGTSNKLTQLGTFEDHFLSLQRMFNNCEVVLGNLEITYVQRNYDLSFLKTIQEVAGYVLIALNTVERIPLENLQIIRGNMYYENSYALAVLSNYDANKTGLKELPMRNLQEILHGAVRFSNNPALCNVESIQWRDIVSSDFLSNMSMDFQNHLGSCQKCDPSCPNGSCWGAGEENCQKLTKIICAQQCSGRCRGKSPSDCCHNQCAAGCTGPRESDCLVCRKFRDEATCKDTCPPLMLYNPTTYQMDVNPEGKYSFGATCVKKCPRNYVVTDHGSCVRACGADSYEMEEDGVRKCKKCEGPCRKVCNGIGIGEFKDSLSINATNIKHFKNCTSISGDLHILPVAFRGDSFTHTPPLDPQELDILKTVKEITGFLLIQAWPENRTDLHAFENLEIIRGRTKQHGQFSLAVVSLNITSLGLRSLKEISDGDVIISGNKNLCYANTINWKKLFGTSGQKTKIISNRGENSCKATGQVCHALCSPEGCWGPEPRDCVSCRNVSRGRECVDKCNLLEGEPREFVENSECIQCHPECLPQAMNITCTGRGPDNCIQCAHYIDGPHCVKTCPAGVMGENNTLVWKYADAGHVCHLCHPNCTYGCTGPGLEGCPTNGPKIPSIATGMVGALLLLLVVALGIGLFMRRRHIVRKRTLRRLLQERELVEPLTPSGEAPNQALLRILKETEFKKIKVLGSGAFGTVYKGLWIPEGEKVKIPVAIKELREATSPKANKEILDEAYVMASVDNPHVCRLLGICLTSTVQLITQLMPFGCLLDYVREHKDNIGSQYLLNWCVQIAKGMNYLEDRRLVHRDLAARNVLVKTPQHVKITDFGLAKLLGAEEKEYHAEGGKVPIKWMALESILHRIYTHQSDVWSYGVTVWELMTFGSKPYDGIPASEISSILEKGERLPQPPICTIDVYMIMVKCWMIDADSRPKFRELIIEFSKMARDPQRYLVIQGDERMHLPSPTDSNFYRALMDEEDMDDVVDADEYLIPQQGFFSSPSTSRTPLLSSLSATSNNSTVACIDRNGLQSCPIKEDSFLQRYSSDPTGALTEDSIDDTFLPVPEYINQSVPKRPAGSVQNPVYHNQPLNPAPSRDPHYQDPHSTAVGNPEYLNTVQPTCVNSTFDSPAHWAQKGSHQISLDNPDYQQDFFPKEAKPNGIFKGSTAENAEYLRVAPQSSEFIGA

For the compound `O=C(Cn1cc(COc2ccccc2OCc2cn(CC(=O)Nc3ccc([N+](=O)[O-])cc3)nn2)nn1)Nc1ccc([N+](=O)[O-])cc1`, the inhibition of growth at 1 µM in data set [1] was 15%; in [6] it was 10.7%. In addition, the inhibition of growth at 0.1 µM in data set [2] was found to be 14.2%; in data set [3], 5.9%. In addition, the inhibition of growth at 10 µM in data set [4] stood at 12.7%; in data set [5], 11.8%.

For `Cc1ccc(NC(=O)Cn2cc(COc3cccc(OCc4cn(CC(=O)Nc5ccc(C)cc5)nn4)c3)nn2)cc1`, the inhibition of growth at 1 µM is 9.47% in data set [1] and 7.51% in [6]. The inhibition of growth at 0.1 µM turned out to be 5.16% in data set [2] and 0% in data set [3]. Moreover, the half-inhibitory concentration (IC50) in data set [7] was found to be 6.01 µM. Moreover, the inhibition in data set [8] stood at 76.9%. The inhibition of growth at 10 µM stood at 82.6% in data set [4] and 34.1% in data set [5].

In the case of `O=C(Cn1cc(COc2ccccc2OCc2cn(CC(=O)Nc3ccccc3)nn2)nn1)Nc1ccccc1`, the inhibition of growth at 1 µM is 12.1% in data set [1] and 6.8% in [6]. The inhibition of growth at 0.1 µM in data set [2] is 11.3%; in data set [3], 0%. The inhibition of growth at 10 µM in data set [4] was determined as 12.9%; in data set [5], 44.3%.

`COc1ccc(NC(=O)Cn2cc(COc3cccc(OCc4cn(CC(=O)Nc5ccc(OC)cc5)nn4)c3)nn2)cc1`: the inhibition of growth at 1 µM in data set [1] turned out to be 11.1%; in data set [6], 42.8%. Besides, the inhibition of growth at 0.1 µM in [2] is 11.9%; in data set [3], 7.26%. In data set [9], the IC50 is 2.34 µM. Further, the inhibition of growth at 10 µM in data set [4] is 33.3%; in data set [5], 94.5%.

In the case of `Cc1ccc(NC(=O)Cn2cc(COc3ccccc3OCc3cn(CC(=O)Nc4ccc(C)cc4)nn3)nn2)cc1`, the inhibition of growth at 1 µM in [1] amounted to 25.7%; in [6] it was 12.8%. The inhibition of growth at 0.1 µM was determined as 25.4% in [2] and 8.92% in [3]. The results for the IC50 in data set [7] and in data set [9] were 6.7 µM and 5.56 µM, respectively. Moreover, in [8], the inhibition came out at 28.2%. For the same compound, the inhibition of growth at 10 µM in data set [4] stood at 63.8%; in data set [5] it was 86.6%.

Take `COc1ccc(NC(=O)Cn2cc(COc3ccccc3OCc3cn(CC(=O)Nc4ccc(OC)cc4)nn3)nn2)cc1`: the inhibition of growth at 1 µM was 24% in [1] and 6.56% in data set [6]. The IC50 in data set [10] came to 33.4 µM; in [7], 4.18 µM. Also, the inhibition of growth at 0.1 µM amounted to 18.4% in data set [2] and 5.57% in data set [3]. Further, in data set [11], the selectivity ratio amounted to 8. The compound also came in with an inhibition in data set [8] of 88.3%. In addition, the inhibition of growth at 10 µM turned out to be 96% in [4] and 15.4% in data set [5].

As to `O=C(Cn1cc(COc2cccc(OCc3cn(CC(=O)Nc4ccc([N+](=O)[O-])cc4)nn3)c2)nn1)Nc1ccc([N+](=O)[O-])cc1`, the inhibition of growth at 1 µM in data set [1] amounted to 4.58%; in data set [6], 42.4%. Further, the inhibition of growth at 0.1 µM in data set [2] was determined as 4.96%; in [3] it was 25.5%. Further, the IC50 in [9] stood at 2.22 µM. For the same compound, the inhibition of growth at 10 µM in data set [4] worked out at 5.44%; in [5], 98.6%.

On to `O=C(Cn1cc(COc2ccccc2OCc2cn(CC(=O)Nc3ccc(Cl)cc3)nn2)nn1)Nc1ccc(Cl)cc1`, for which the inhibition of growth at 1 µM in [1] stood at 42.9%; in data set [6], 25.4%. In addition, the IC50 in data set [10] amounted to 14 µM; in [7], 2.8 µM; in data set [9] it was 5.61 µM. For the same compound, the results for the inhibition of growth at 0.1 µM in data set [2] and in [3] were 39% and 1.89%, respectively. The selectivity ratio in data set [11] is 5. Further, in data set [8], the inhibition came out at 72.7%. Moreover, the inhibition of growth at 10 µM in data set [4] is 79.9%; in data set [5], 73.5%.

`O=C(Cn1cc(COc2cccc(OCc3cn(CC(=O)Nc4ccc(Cl)cc4)nn3)c2)nn1)Nc1ccc(Cl)cc1`: the inhibition of growth at 1 µM in data set [1] was 31.7%; in [6], -0.17%. The inhibition of growth at 0.1 µM in [2] worked out at 16.2%; in data set [3], 1.16%. Moreover, the IC50 in data set [7] worked out at 6.13 µM. The compound further gave an inhibition in data set [8] of 32.6%. Also, the inhibition of growth at 10 µM in data set [4] came out at 64%; in data set [5], 3.36%.

As to `O=C(Cn1cc(COc2cccc(OCc3cn(CC(=O)Nc4ccccc4)nn3)c2)nn1)Nc1ccccc1`, the inhibition of growth at 1 µM in data set [1] turned out to be 13.8%; in data set [6], 10.8%. Further, the inhibition of growth at 0.1 µM worked out at 14.5% in data set [2] and 11.4% in [3]. Besides, the IC50 in data set [9] amounted to 7.05 µM. Moreover, the inhibition of growth at 10 µM in [4] was 22.1%; in data set [5], 69.2%.
